In patent US20260193244A1 (Protego Biopharma, Inc., priority 2022, published 2026) one finds activation data, which are given here for 56 molecules.

Counter-ions that a name gives are not always drawn.

This assay relates to IRE1-XBP1s (HEK293 T-REx cells stably expressing the XBP1-RLuc splicing reporter). The assay can be described thus: IRE1-XBP1s activation Assay (XBP1-RLuc splicing reporter, luminescence relative to thapsigargin, with or without IRE1 inhibitor 4μ8C). Type of assay: cell-based. The conditions noted are these: 18 h, compound 10 μM, luminescence as percentage signal relative to thapsigargin (Tg) (500 nM, 18 h). Here is the method: IRE1-XBP1s activation Assay: HEK293 T-REx cells stably expressing the XBP1-RLuc splicing reporter were treated with an IRE1-XBP1s activator provided herein (10 μM) in the presence or absence of the IRE1 active site inhibitor 4μ8C (32 μM) for 18 h. Luminescence was shown as the percentage signal relative to thapsigargin (Tg) (500 nM, 18 h).
Regarding `Cc1ccc(OCCN(C)C(=O)Cn2cc(NC(=O)C3CCN(c4ccccc4)C3)cn2)cc1` (centres unmarked) [Compound 64], the activation at 10 µM was < 30%.

In turn, `Cc1ccc(OC2COCCN(C(=O)Cn3cc(NC(=O)CCOc4ccccc4)cn3)C2)cc1` (centres unmarked) [Compound 65] displayed an activation at 10 µM of 30 to 50%.

Regarding `Cc1ccc(OCCN(C)C(=O)Cn2cc(NC(=O)C3CNc4ccccc4C3)cn2)cc1` (centres unmarked) [Compound 66], the activation at 10 µM was < 30%.

For the molecule `Cc1ccc(OCCN(C)C(=O)Cn2cc(NC(=O)C3COc4ccccc43)cn2)cc1` (centres unmarked) [Compound 67], the activation at 10 µM is < 30%.

Turning to `Cc1ccc(OC2(C)CCCN(C(=O)Cn3cc(NC(=O)CCOc4ccccc4F)cn3)C2)c(N)c1` (centres unmarked) [Compound 69, N-(1-(2-(3-(2-amino-4-methylphenoxy)-3-methylpiperidin-1-yl)-2-oxoethyl)-1H-pyrazol-4-yl)-3-(2-fluorophenoxy)propanamide], the activation at 10 µM was < 30%.

With `CN(C(=O)Cn1cc(NC(=O)CCOc2ccccc2)cn1)C12CCC(Oc3ccc(C(F)(F)F)cc3)(CC1)CC2` [Compound 70], the activation at 10 µM is ≥ 50%.

On to `Cc1ccc(O[C@H]2CCCN(C(=O)Cn3cc(NC(=O)CCOc4ccccc4F)cn3)C2)cc1` [Compound 71], for which the activation at 10 µM was ≥ 50%.

On to `Cc1ccc(O[C@@H]2CCCN(C(=O)Cn3cc(NC(=O)CCOc4ccccc4F)cn3)C2)cc1` [Compound 72], for which the activation at 10 µM is ≥ 50%.

As to `Cc1ccc(OCCN(C)C(=O)Cn2cc(NC(=O)C3CN(C(=O)OC(C)(C)C)c4ccccc4O3)cn2)cc1` (centres unmarked) [Compound 73], the activation at 10 µM is < 30%.

For `Cc1ccc(OC2CCCN(C(=O)Cn3cc(NC(=O)CCOc4ccccc4-c4ccccc4)cn3)C2)cc1` (centres unmarked) [Compound 74], the activation at 10 µM is < 30%.

On to `Cc1ccc(OC2CCCN(C(=O)Cn3cc(NC(=O)CCOc4cncc(F)c4)cn3)C2)cc1` (centres unmarked) [Compound 75], for which the activation at 10 µM is < 30%.

The molecule `Cc1ccc(OC2(C)CCCN(C(=O)Cn3cc(NC(=O)CCOc4ccccc4F)cn3)C2)cc1` (centres unmarked) [Compound 77] registered an activation at 10 µM of 30 to 50%.

As to `CC1(Oc2ccc(Br)cc2)CCCN(C(=O)Cn2cc(NC(=O)CCOc3ccccc3F)cn2)C1` (centres unmarked) [Compound 78], the activation at 10 µM was < 30%.

`Cc1ccc(OC2CCCN(C(=O)Cn3cc(NC(=O)CCOc4cc(Cl)ccc4F)cn3)C2)cc1` (centres unmarked) [Compound 80]: the activation at 10 µM was ≥ 50%.

`Cc1ccc(OC2CCCN(C(=O)Cn3cc(NC(=O)CCOc4ccccc4C(F)(F)F)cn3)C2)cc1` (centres unmarked) [Compound 83]: the activation at 10 µM is < 30%.

As to `Cc1ccc(OCCN(C)C(=O)Cn2cc(NC(=O)CCN3CCOc4ccccc43)cn2)cc1` [Compound 85], the activation at 10 µM is < 30%.

As for `Cc1ccc(OC2CCCN(C(=O)Cn3cc(NC(=O)CCOc4c(F)cccc4F)cn3)C2)cc1` (centres unmarked) [Compound 86], the activation at 10 µM lay within 30 to 50%.

Take `Cc1ccc(OC2CCCN(C(=O)Cn3cc(NC(=O)CCOc4cncc(C(F)(F)F)c4)cn3)C2)cc1` (centres unmarked) [Compound 89]: the activation at 10 µM was < 30%.

`Cc1ccc(OCCN(C)C(=O)Cn2cc(NC(=O)C3CNc4ncccc4O3)cn2)cc1` (centres unmarked) [Compound 90, N-(1-(2-(methyl(2-(p-tolyloxy)ethyl)amino)-2-oxoethyl)-1H-pyrazol-4-yl)-3,4-dihydro-2H-pyrido[3,2-b][1,4]oxazine-2-carboxamide hydrochloride] returned an activation at 10 µM of 30 to 50%.

For `Cc1ccc(OC2CCCN(C(=O)Cn3cc(NC(=O)CCOc4cccnc4C(F)(F)F)cn3)C2)cc1` (centres unmarked) [Compound 91], the activation at 10 µM is < 30%.

Regarding `Cc1ccc(O[C@@H]2CCCN(C(=O)Cn3cc(NC(=O)CCOc4ccc(F)cc4C)cn3)C2)cc1` [Compound 93], the activation at 10 µM is ≥ 50%.

`Cc1ccc(O[C@H]2CCCN(C(=O)Cn3cc(NC(=O)CCOc4ccc(F)cc4C)cn3)C2)cc1` [Compound 94]: the activation at 10 µM fell in the range of 30 to 50%.

Turning to `Cc1ccc(OCCN(C)C(=O)Cn2cc(NC(=O)CC3CNc4cc(F)ccc4O3)cn2)cc1` (centres unmarked) [Compound 96, 2-(4-(2-(6-fluoro-3,4-dihydro-2H-benzo[b][1,4]oxazin-2-yl)acetamido)-1H-pyrazol-1-yl)-N-methyl-N-(2-(p-tolyloxy)ethyl)acetamide], the activation at 10 µM lay within 30 to 50%.

On to `Cc1ccc(OCCN(C)C(=O)Cn2cc(NC(=O)CC3CN(C(=O)OC(C)(C)C)c4cc(F)ccc4O3)cn2)cc1` (centres unmarked) [Compound 97], for which the activation at 10 µM is ≥ 50%.

For the molecule `Cc1ccc(OC2CCCN(C(=O)Cn3cc(NC(=O)CCOc4ccc(F)cc4C)cn3)C2)cc1` (centres unmarked) [Compound 98], the activation at 10 µM is ≥ 50%.

Regarding `Cc1ccc(OC2CCCN(C(=O)Cn3cc(NC(=O)CCC4(c5ccccc5F)CC4)cn3)C2)cc1` (centres unmarked) [Compound 100, 3-(1-(2-fluorophenyl)cyclopropyl)-N-(1-(2-oxo-2-(3-(p-tolyloxy)piperidin-1-yl)ethyl)-1H-pyrazol-4-yl)propanamide], the activation at 10 µM is < 30%.

On to `Cc1ccc(OCCN(C)C(=O)Cn2cc(NC(=O)C3CCCC(Oc4ccncc4)C3)cn2)cc1` (centres unmarked) [Compound 101], for which the activation at 10 µM was < 30%.

In the case of `Cc1ccc(OCCN(C)C(=O)Cn2cc(NC(=O)C3CCC(Oc4ccncc4)CC3)cn2)cc1` (centres unmarked) [Compound 102], the activation at 10 µM was ≥ 50%.

Take `Cc1ccc(OCCN(C)C(=O)Cn2cc(NC(=O)C3CCC(Oc4cccnc4)CC3)cn2)cc1` (centres unmarked) [Compound 103]: the activation at 10 µM is < 30%.

For `Cc1ccc(OCCN(C)C(=O)Cn2cc(NC(=O)C3CCC(Oc4ccncc4)C3)cn2)cc1` (centres unmarked) [Compound 104], the activation at 10 µM was ≥ 50%.

For the molecule `Cc1ccc(O[C@H]2CCCN(C(=O)Cn3cc(NC(=O)C4CC(Oc5ccccn5)C4)cn3)C2)cc1` (some centres unmarked) [Compound 105], the activation at 10 µM fell in the range of 30 to 50%.

For `Cc1ccc(O[C@H]2CCCN(C(=O)Cn3cc(NC(=O)[C@H]4C[C@H](Oc5ccccn5)C4)cn3)C2)cc1` [Compound 106], the activation at 10 µM was ≥ 50%.

Consider `Cc1ccc(O[C@H]2CCCN(C(=O)Cn3cc(NC(=O)C4CC(Oc5cccnc5N)C4)cn3)C2)cc1` (some centres unmarked) [Compound 107], for which the activation at 10 µM fell in the range of 30 to 50%.

For `O=C(Nc1cnn(CC(=O)N2CCC[C@H](Oc3ccc(C(F)(F)F)cn3)C2)c1)C1CC(Oc2ccncc2)C1` (some centres unmarked) [Compound 108], the activation at 10 µM was < 30%.

`O=C(Cn1cc(NC(=O)[C@H]2C[C@H](Oc3ccccc3)C2)cn1)N1CCC[C@H](Oc2ccc(C(F)(F)F)cn2)C1` [Compound 109]: the activation at 10 µM was < 30%.

Take `Cc1ccc(OCCN(C)C(=O)Cn2cc(NC(=O)CC3CCc4cc(F)ccc4O3)cn2)cc1` (centres unmarked) [Compound 110]: the activation at 10 µM was < 30%.

As for `Cc1ccc(OCCN(C)C(=O)Cn2cc(NC(=O)c3cnccc3NC(=O)OC(C)(C)C)cn2)cc1` [Compound 111], the activation at 10 µM is ≥ 50%.

For the molecule `Cc1ccc(OCCN(C)C(=O)Cn2cc(NC(=O)c3cnccc3N)cn2)cc1` [Compound 112], the activation at 10 µM was < 30%.

On to `COc1ccc(N(C)C(=O)Cn2cc(NC(=O)CCOc3ccccc3)cn2)cc1` [Compound 113], for which the activation at 10 µM was < 30%.

`O=C(CCOc1ccccc1)Nc1cnn(CC(=O)Nc2ccc(OC(F)F)cc2)c1` [Compound 114] registered an activation at 10 µM of 30 to 50%.

Take `Cc1ccc(C(=O)c2ccc(N(C)C(=O)Cn3cc(NC(=O)CCOc4ccccc4)cn3)cn2)cc1` [Compound 115]: the activation at 10 µM was < 30%.

With `Cc1ccc(Oc2cccc(N(C)C(=O)Cn3cc(NC(=O)CCOc4ccccc4)cn3)c2)cc1` [Compound 116], the activation at 10 µM is < 30%.

In the case of `Cc1ccc(OC2CCCCN(C(=O)Cn3cc(NC(=O)CCOc4ccccc4)cn3)C2)cc1` (centres unmarked) [Compound 117], the activation at 10 µM was ≥ 50%.

As to `Cc1ccc(Oc2ccc(N(C)C(=O)Cn3cc(NC(=O)CCOc4ccccc4)cn3)cc2)cc1` [Compound 118], the activation at 10 µM is < 30%.

As to `CN(C(=O)Cn1cc(NC(=O)CCOc2ccccc2)cn1)c1ccc(OC2CCC(C)(C)CC2)c(F)c1` [Compound 119], the activation at 10 µM is < 30%.

For `Cc1ccc(O[C@H]2CCCN(C(=O)Cn3cc(NC(=O)C4CNc5ccccc5O4)cn3)C2)cc1` (some centres unmarked) [Compound 120], the activation at 10 µM is < 30%.

In the case of `Cc1ccc(O[C@H]2CCCN(C(=O)Cn3cc(NC(=O)C4CN(C(=O)OC(C)(C)C)c5ccccc5O4)cn3)C2)cc1` (some centres unmarked) [Compound 121], the activation at 10 µM is < 30%.

Regarding `Cc1ccc(O[C@H]2CCCN(C(=O)Cn3cc(NC(=O)[C@H]4CNc5ccccc5O4)cn3)C2)cc1` [Compound 122], the activation at 10 µM is < 30%.

For the molecule `Cc1ccc(O[C@H]2CCCN(C(=O)Cn3cc(NC(=O)[C@@H]4CNc5ccccc5O4)cn3)C2)cc1` [Compound 123], the activation at 10 µM is < 30%.

Turning to `Cc1ccc(OCCN(C)C(=O)Cn2cc(NC(=O)C3Oc4cccc(C(C)C)c4O3)cn2)cc1` (centres unmarked) [Compound 124], the activation at 10 µM is < 30%.

Take `Cc1ccc(OCCN(C)C(=O)Cn2cc(NC(=O)C3COc4cccc(C)c4O3)cn2)cc1` (centres unmarked) [Compound 125]: the activation at 10 µM is 30 to 50%.

With `Cc1ccc(OCCN(C)C(=O)Cn2cc(NC(=O)C3COc4cccc(C(C)C)c4O3)cn2)cc1` (centres unmarked) [Compound 126], the activation at 10 µM is < 30%.

Consider `Cc1ccc(OCCN(C)C(=O)Cn2cc(NC(=O)C3CNc4cccc(F)c4O3)cn2)cc1` (centres unmarked) [Compound 127], for which the activation at 10 µM lay in the range of 30 to 50%.

As to `Cc1ccc(OCCN(C)C(=O)Cn2cc(NC(=O)C3Oc4ccccc4O3)cn2)cc1` [Compound 128], the activation at 10 µM was < 30%.

`Cc1ccc(OCCN(C)C(=O)Cn2cc(NC(=O)C3COc4c(F)cccc4O3)cn2)cc1` (centres unmarked) [Compound 129]: the activation at 10 µM was ≥ 50%.

Consider `Cc1ccc(OCCN(C)C(=O)Cn2cc(NC(=O)OC3CCCN(c4ccnc(F)n4)C3)cn2)cc1` (centres unmarked) [Compound 130, 1-(2-fluoropyrimidin-4-yl)piperidin-3-yl (1-(2-(methyl (2-(p-tolyl-oxy)ethyl)amino)-2-oxoethyl)-1H-pyrazol-4-yl)carbamate], for which the activation at 10 µM is < 30%.
